The results in this text go back to patent publication US20160024098A1, “HYBRID NECROPTOSIS INHIBITORS” (PRESIDENT AND FELLOWS OF HARVARD COLLEGE, priority 2013, published 2016).

Molecules are shown by their SMILES.

This assay relates to FADD-deficient Jurkat cells. Nature of the assay: necroptosis assay (TNF-α-induced necroptosis, CellTiter-Glo ATP-based viability). It counts as cell-based. As to conditions: FADD-deficient Jurkat cells treated with 10 ng/ml human TNFalpha for 24 hr, eleven concentrations. On the procedure:
Evaluation of necroptosis inhibitory activity can be performed using a FADD-deficient variant of human Jurkat T cells treated with TNF-α as previously described (Degterev et al., Nat. Chem. Biol. 1:112 (2005) and Jagtap et al., J. Med. Chem. 50: 1886 (2007)). For EC50 value determinations, cells can be treated with 10 ng/mL of human TNF-α in the presence of increasing concentration of test compounds for 24 hours followed by ATP-based viability assessment.
ATP-based viability assessment: Briefly, necroptosis activity can be performed using a FADD-deficient variant of human Jurkat T cells treated with TNF-α. For EC50 value determinations, cells (500,000 cells/mL, 100 μL per well in a 96-well plate) can be treated with 10 ng/mL of human TNF-α in the presence of increasing concentration of test compounds for 24 hours at 37° C. in a humidified incubator with 5% CO2 followed by ATP-based viability assessment. Stock solutions (30 mM) in DMSO can be prepared and then diluted with DMSO to give testing solutions, which were added to each test well. The final DMSO concentration can be 0.5%. Eleven compound test concentrations (0.030-100 μM) can be used, and each concentration can be done in duplicate.
Cell viability assessments can be performed using a commercial luminescent ATP-based assay kit (CellTiter-Glo, Promega, Madison, Wis.) according to the manufacturer's instructions. Briefly, 40 μL of the cell lysis/ATP detection reagent can be added to each well. Plates can be incubated on a rocking platform for 10 minutes at room temperature and luminescence was measured using a Wallac Victor 3 plate-reader (Perkin Elmer, Wellesley, Mass.). Cell viability can be expressed as a ratio of the signal in the well treated with TNF-α and compound to the signal in the well treated with compound alone in order to account for nonspecific toxicity. EC50 values can be calculated using nonlinear regression analysis of sigmoid dose-response (variable slope) curves from plots of log [I] verses viability values.
For necroptosis assay, FADD-deficient Jurkat cells were treated with 10 ng/ml human TNFalpha for 24 hr, followed by CellTiter-Glo viability assay (Promega). EC50 values were calculated using non-linear regression in GraphPad Prism software. Eleven concentrations of each compound were tested to generate dose response curves.
`Cc1ccc(CCCCN2C(=O)NC(Cc3c[nH]c4c(Cl)cccc34)C2=O)cc1C#Cc1cnc2cccnn12` (stereo not drawn) [Compound (29)] had an EC50 of 9.9 nM. This counts as single-digit nanomolar. Still for that read-out and setting: the result for `O=C1NC(Cc2c[nH]c3c(Cl)cccc23)C(=O)N1CCC#Cc1cnc2cccnn12` (stereo not drawn) [Compound (41)] reads 745 nM. The same measure, in the same setting: next, `CNC(=O)c1cc(Oc2ccc(CCCN3C(=O)NC(Cc4c[nH]c5c(Cl)cccc45)C3=O)c(F)c2)ccn1` (stereo not drawn) [Compound (37)]: 24500 nM; `Cc1ccc(C(=O)NCCN2C(=O)NC(Cc3c[nH]c4c(Cl)cccc34)C2=O)cc1C#Cc1cnc2ccccn12` (stereo not drawn) [Compound (2)]: 163 nM; `Cc1ccc(SCCN2C(=O)NC(Cc3c[nH]c4c(Cl)cccc34)C2=O)cc1C#Cc1cnc2cccnn12` (stereo not drawn) [Compound (30)]: 80.4 nM. The same measure, in the same setting: next, `Cc1cc(CCCCN2C(=O)NC(Cc3c[nH]c4c(Cl)cccc34)C2=O)ccc1C#Cc1cnc2cccnn12` (stereo not drawn) [Compound (35)]: 299 nM; `Cc1ccc(CCCN2C(=O)NC(Cc3c[nH]c4c(Cl)cccc34)C2=O)cc1C#Cc1cnc2cccnn12` (stereo not drawn) [Compound (33)]: 74.4 nM; `Cc1ccc(C(=O)NCCN2C(=O)NC(Cc3c[nH]c4c(Cl)cccc34)C2=O)cc1CCc1cnc2cccnn12` (stereo not drawn) [Compound (8)]: 1770 nM. Consider `CNC(=O)c1cc(Oc2ccc(NC(=O)N3C(=O)NC(Cc4c[nH]c5c(Cl)cccc45)C3=O)c(F)c2)ccn1` (stereo not drawn) [Compound (38)], for which the “EC50, nM in necroptosis assay” value is recorded as “INACTIVE”. In the case of `Cc1ccc(OCCN2C(=O)NC(Cc3c[nH]c4c(Cl)cccc34)C2=O)cc1C#Cc1cnc2cccnn12` (stereo not drawn) [Compound (32)], the EC50 was found to be 134 nM. On the same count and under the same terms, next, `Cc1ccc(CCCCCN2C(=O)NC(Cc3c[nH]c4c(Cl)cccc34)C2=O)cc1C#Cc1cnc2cccnn12` (stereo not drawn) [Compound (34)]: 185 nM. Still for that read-out and setting: the result for `CNC(=O)c1cc(Oc2ccc(NC(=O)CCN3C(=O)NC(Cc4c[nH]c5c(Cl)cccc45)C3=O)c(F)c2)ccn1` (stereo not drawn) [Compound (36)] reads 19300 nM; that for `Cc1ccc(C(=O)NCCN2C(=O)NC(Cc3c[nH]c4c(Cl)cccc34)C2=O)cc1C#Cc1cnc2cccnn12` (stereo not drawn) [Compound (1)], 200 nM; that for `O=C(NCCN1C(=O)NC(Cc2c[nH]c3c(Cl)cccc23)C1=O)c1cccc(C#Cc2cnc3cccnn23)c1` (stereo not drawn) [Compound (3)], 364 nM. The same measure, in the same setting: next, `Cc1ccc(CCN2C(=O)NC(Cc3c[nH]c4c(Cl)cccc34)C2=O)cc1C#Cc1cnc2cccnn12` (stereo not drawn) [Compound (31)]: 136 nM.
